Patent US20100285959A1, “HERBICIDAL MIXTURES” (priority 2006, published 2010)

How the values were obtained:
[1] = tested on: velvetleaf (ABUTH); assay: Test 25 field trial, postemergence, growth as percent of control; type: in vivo, Abutilon theophrasti
From the text: Corn seeds (hybrid ‘Pioneer 31G96 RR’) were planted in mid spring season, 3.8 cm deep in a clay loam soil having 2% organic matter and a pH of 6.6. Plots were 6.1 m long by 3.0 m wide with rows spaced 76 cm apart. Seeds were spaced 15 cm apart within the rows. The field was managed using conventional tillage practices. […] Giant ragweed and Pennsylvania smartweed could only be evaluated 14 days after application. […] Results are the means of the three replicates. This growth inhibition data was converted to results in the form of “plant growth as a percent of control plant growth” using the calculation “100 minus growth inhibition”.
When this form of Colby's Equation is used, if the observed effects on weeds are less than the expected values, the mixture is synergistic.

[2] = tested on: kochia (KCHSC); assay: Test 27 field trial, postemergence; type: in vivo, Kochia scoparia; parameters: scale not given here
From the text: Wheat seeds (cv. ‘Custer’) were planted in late fall season in a clay loam soil. Plots were 9 m long by 1.8 m wide. The field was managed using conventional tillage practices. […] All treatments also included a surfactant. […] Results are the means of the three replicates.

[3] = tested on: jimsonweed (DATST); assay: Test 26 field trial, postemergence; type: in vivo, Datura stramonium; conditions: 28 DAA
From the text: (§1) Corn seeds (hybrid ‘Pioneer 31G96’) were planted in mid spring season, 3.8 cm deep in a silt loam soil having 2% organic matter and a pH of 6.6. Plots were 6.1 m long by 3.0 m wide with rows spaced 76 cm apart. Seeds were spaced 15 cm apart within the rows. The field was managed using conventional tillage practices. […] All treatments also included a surfactant. […] Some of the weed species could not be evaluated at every timing. […] Results are the means of the three replicates.

[4] = tested on: wild mustard (SINAR); assay: Test 24 growth chamber, postemergence; type: in vivo, Sinapis arvensis; conditions: 17 DAA
Protocol: (§2) Plants were treated postemergence at the 2-4 leaf growth stage, and each treatment was replicated three times. […] Plants were watered as needed. […] Results for barley and wheat are the means across varieties of the three replicates, and results for the weeds are the means of the three replicates.

[5] = tested on: barnyardgrass (ECHCG); assay: Test 28 greenhouse, postemergence; type: in vivo, Echinochloa crus-galli; conditions: 26 DAA
Protocol: (§3) A greenhouse test was conducted to evaluate the effects on the plant species corn (ZEAMD, Zea mays ssp. indentata), sorghum (SORVU, Sorghum vulgare L.), dry-seeded rice (ORYSA, Oryza sativa L.), wheat (TRZAW, Triticum aestivum L.), ivyleaf morningglory (IPOHE, Ipomoea hederacea (L.) JACQ.), and barnyardgrass (ECHCG, Echinochloa crus-galli (L.) P. BEAUV.), of mixtures of Compound 2 with isoxadifen-ethyl. Corn, sorghum, rice, wheat, ivyleaf morningglory and barnyardgrass seeds were planted in RediEarth, a commercial potting medium. […] Corn plants were treated postemergence at the V2 growth stage, and sorghum, rice, wheat, ivyleaf morningglory, and barnyardgrass plants were treated postemergence at the 3-leaf stage. […] Each treatment was replicated three times. […] Plants were watered as needed.

[6] = tested on: giant ragweed (AMBTR); assay: Test 26 field trial, postemergence; type: in vivo, Ambrosia trifida
From the text: as §1

[7] = tested on: corn (ZEAMD); assay: Test 28 greenhouse, post- and preemergence; type: in vivo, Zea mays ssp. indentata; parameters: scale not given here; conditions: 26 DAA
Protocol: as §3

[8] = tested on: Pennsylvania smartweed (POLPY); assay: Test 26 field trial, postemergence; type: in vivo, Polygonum pensylvanicum
From the text: as §1

[9] = tested on: spring wheat (TRZAS); assay: Test 4 field trial, postemergence
Protocol: A field trial was conducted to evaluate the effects of mixtures of Compound 2 with commercial herbicides on spring wheat (TRZAS, Triticum aestivum L.) and several weed species. Wheat seeds (cv. ‘AC Intrepid’) were planted in late spring season, 3.8 cm deep in a loam soil having 2.7% organic matter and a pH of 7. Plots were 6 m long by 2.5 m wide. The field was managed using no-till practices. The plots were arranged in a randomized complete block design with each treatment being replicated four times. Treatments were applied postemergence 25 days after planting using a backpack sprayer delivering a spray volume of 55 L/ha using a pressure of 276 kPa. […] Compound 2 and clodinafop treatments, alone and in combination, also included a surfactant. Weed species present in the experimental plots in sufficient quantity to be evaluated included wild oat (AVEFA, Avena fatua L.), common lambsquarters (CHEAL, Chenopodium album L.), kochia (KCHSC, Kochia scoparia (L.) Schrad.), wild buckwheat (POLCO, Polygonum convolvulus L.), Russian thistle (SASKR, Salsola kali L. ssp. ruthenica (Iljin) Soo), and field pennycress (THLAR, Thlaspi arvense L.). […] Common lambsquarters was evaluated only at 14 days after application. […] Results are the means of the four replicates.

[10] = tested on: galium (GALAP); assay: Test 24 growth chamber, postemergence; type: in vivo, Galium aparine; conditions: 17 DAA
Protocol: as §2

COC(=O)c1nc(C2CC2)nc(N)c1Cl [Compound 2, methyl 6-amino-5-chloro-2-cyclopropyl-4-pyrimidinecarboxylate]
ABUTH Obs (percent of control) ([1]; Cpd 2 15 g a.i./ha, 14 DAA): 70% | ABUTH Obs (percent of control) ([1]; Cpd 2 15 g a.i./ha, 28 DAA): 72% | ABUTH Obs (percent of control) ([1]; Cpd 2 15 g a.i./ha, 56 DAA): 62% | ABUTH Obs (percent of control) ([1]; Cpd 2 30 g a.i./ha, 14 DAA): 45% | ABUTH Obs (percent of control) ([1]; Cpd 2 30 g a.i./ha, 28 DAA): 53% | ABUTH Obs (percent of control) ([1]; Cpd 2 30 g a.i./ha, 56 DAA): 28% | ABUTH Obs (percent of control) ([1]; Cpd 2 45 g a.i./ha, 14 DAA): 37% | ABUTH Obs (percent of control) ([1]; Cpd 2 45 g a.i./ha, 28 DAA): 40% | ABUTH Obs (percent of control) ([1]; Cpd 2 45 g a.i./ha, 56 DAA): 20% | KCHSC Obs ([2]; 16 DAA, 15 g a.i./ha): 30 | KCHSC Obs ([2]; 16 DAA, 30 g a.i./ha): 65 | KCHSC Obs ([2]; 16 DAA, 45 g a.i./ha): 78 | KCHSC Obs ([2]; 28 DAA, 15 g a.i./ha): 43 | KCHSC Obs ([2]; 28 DAA, 30 g a.i./ha): 79 | KCHSC Obs ([2]; 28 DAA, 45 g a.i./ha): 94 | KCHSC Obs ([2]; 49 DAA, 15 g a.i./ha): 32 | KCHSC Obs ([2]; 49 DAA, 30 g a.i./ha): 73 | KCHSC Obs ([2]; 49 DAA, 45 g a.i./ha): 96 | DATST Obs ([3]; 30 g a.i./ha): 100 | DATST Obs ([3]; 45 g a.i./ha): 100 | DATST Obs ([3]; 60 g a.i./ha): 100 | SINAR Obs (scale 0 to 100) ([4]; Cpd 2 4 g a.i./ha): 62 | SINAR Obs (scale 0 to 100) ([4]; Cpd 2 8 g a.i./ha): 65 | SINAR Obs (scale 0 to 100) ([4]; Cpd 2 16 g a.i./ha): 72 | ECHCG Obs ([5]; Cpd 2 32 g a.i./ha): 83 | ECHCG Obs ([5]; Cpd 2 64 g a.i./ha): 87 | AMBTR Obs ([6]; 14 DAA, 30 g a.i./ha): 97 | AMBTR Obs ([6]; 28 DAA, 30 g a.i./ha): 100 | AMBTR Obs ([6]; 28 DAA, 45 g a.i./ha): 100 | AMBTR Obs ([6]; 28 DAA, 60 g a.i./ha): 100 | ZEAMD Obs ([7]; postemergence, Cpd 2 32 g a.i./ha): 27 | ZEAMD Obs ([7]; postemergence, Cpd 2 64 g a.i./ha): 50 | ZEAMD Obs ([7]; preemergence, Cpd 2 32 g a.i./ha): 7 | ZEAMD Obs ([7]; preemergence, Cpd 2 64 g a.i./ha): 7 | POLPY Obs ([8]; 14 DAA, 60 g a.i./ha): 100 | POLPY Obs ([8]; 28 DAA, 30 g a.i./ha): 20 | POLPY Obs ([8]; 28 DAA, 45 g a.i./ha): 62 | POLPY Obs ([8]; 28 DAA, 60 g a.i./ha): 75 | TRZAS Obs ([9]; 14 DAA, Cpd 2 30 g a.i./ha alone or with clodinafop 56 or fenoxaprop 90): 0 | TRZAS Obs ([9]; 14 DAA, Cpd 2 60 g a.i./ha alone or with clodinafop 56 or fenoxaprop 90): 0 | TRZAS Obs ([9]; 35 DAA, Cpd 2 30 g a.i./ha alone or with clodinafop 56 or fenoxaprop 90): 2 | TRZAS Obs ([9]; 35 DAA, Cpd 2 60 g a.i./ha alone or with clodinafop 56 or fenoxaprop 90): 6 | TRZAS Obs ([9]; 55 DAA, Cpd 2 30 g a.i./ha alone or with clodinafop 56 or fenoxaprop 90): 3 | TRZAS Obs ([9]; 55 DAA, Cpd 2 60 g a.i./ha alone or with clodinafop 56 or fenoxaprop 90): 11 | GALAP Obs (scale 0 to 100) ([10]; Cpd 2 4 g a.i./ha): 73 | GALAP Obs (scale 0 to 100) ([10]; Cpd 2 8 g a.i./ha): 75 | GALAP Obs (scale 0 to 100) ([10]; Cpd 2 16 g a.i./ha): 87
